# According to patent US11261170B2, “Aromatic compound, pharmaceutical composition and use thereof” (Sichuan Kelun-Biotech Biopharmaceutical Co., Ltd., priority 2017, dated 2022):
# Legend:
# [1] = target: PPARα (Homo sapiens (Human), UniProt Q07869); test: Activation of transient transfected PPAR α in HEK293 cells (GAL4-hPPAR α luciferase assay); type: cell-based; details: HEK293 transfected with GAL4-hPPAR α, 24 h incubation
# Method: Test example 1: Experiment of the compounds on activation of transient transfected PPAR α in HEK293 cells
# Plasmid: pcDNA3.1(+)-GAL4-hPPAR α, customized by Nanjing Kebai Biotechnology Co., Ltd.
# (§1) Liposome: PGL4.35, customized by Nanjing Kebai Biotechnology Co., Ltd.
# (§2) Cell: human embryonic kidney cells HEK293, purchased from ATCC.
# (§3) Transfection reagent: Lipofectamine Reagent 3000 purchased from Invitrogen.
# (§4) Assay kit: Bright Glo™ Luciferase Assay System purchased from Promega.
# (§5) HEK293 cells were incubated in DMEM medium containing 10% of fetal bovine serum at 37° C. in the presence of 5% of CO2. 3×10^5/ml cells were plated in each well of the 6-well plate. When the cell convergence degree reached 50%-80%, 5 μg of liposome PGL4.35 and 5 μg of expression plasmid pcDNA3.1(+)-GAL4-hPPAR α were added to transfect the cells for 24 h and then the cells were collected. The transfected cells were plated in the 96-well plate and the compounds of the application in different concentrations were added, incubated for 24 h, and Bright Glo™ Luciferase Assay System reagent was added for luciferase assay.
# [2] = target: hERG potassium ion channel (Homo sapiens (Human), UniProt Q12809); test: Predictor hERG fluorescence polarization; type: binding
# Method: Test Example 5: In Vitro Safety Test
# The effect of the compound on hERG potassium ion channel was tested by Predictor™ hERG fluorescence polarization.
# [3] = target: PPARδ (Homo sapiens (Human), UniProt Q03181); test: Activation of transient transfected PPAR δ in HEK293 cells (GAL4-hPPAR δ luciferase assay); type: cell-based; details: HEK293 transfected with GAL4-hPPAR δ, 24 h incubation
# Method: Test Example 2: Experiment of the Compounds on Activation of Transient Transfected PPAR δ in HEK293 Cells
# Plasmid: pcDNA3.1(+)-GAL4-hPPAR δ, customized by Nanjing Kebai Biotechnology Co., Ltd.
# as §1, §2, §3, §4
# as §5, with “δ” for “α”, “Then, the” for “The”, “reagent” for “reagent was added”, “assay was added.” for “assay.”
# [4] = Cytotoxicity test on HepG2 cells (CellTiter Glo); type: cell-based; details: human, incubated for 3 days
# Method: (§6) Test Example 4: Cytotoxicity Test of Compound on HepG2 & Hek293 Cells
# (§7) Cells: human hepatocyte HepG2, purchased from ATCC; Human embryonic kidney cells HEK293: purchased from ATCC;
# (§8) Assay reagent: CellTiter Glo® Luminescent Cell Viability Assay, purchased from Promega.
# (§9) HepG2 and HEK293 cells were incubated in DMEM/F12 medium containing 10% of fetal bovine serum respectively. A proper amount of cells were plated into a 96-well plate, the plate was placed in an incubator overnight, and the culture medium was removed, and replaced with a complete culture medium containing the compound of the application, and incubated for 3 days. On day 4, an assay reagent CellTiter Glo was added to each well, and the relative luminous unit (RLU) of each well was determined by chemiluminescence. CC50 values of the compound of the application to HepG2 and HEK293 cells were calculated by GraphPad software, and the results were shown in Table 3.
# [5] = Cytotoxicity test on HEK293 cells (CellTiter Glo); type: cell-based; details: human, incubated for 3 days
# Method: as §6, §7, §8, §9
# [6] = tested on: MCD model of non-alcoholic steatohepatitis; test: In vivo efficacy study in the MCD model of non-alcoholic steatohepatitis; design: species or system C57 Mice; details: MCD diet mice
# Method: Test Example 6: In Vivo Efficacy Study of Compound in the MCD Model of Non-Alcoholic Steatohepatitis In this example, comparative test between compound GFT505 from WO2018133705A1 and compounds of the invention was conducted, so as to show the advantages of compounds of the invention. C57 Mice at 8-10 weeks of age (purchased from Vital River Laboratories) were body-weight matched and randomly divided into groups of normal, model, control and test. Mice in normal group were fed with standard chow for 9 weeks. Mice in model group, control group and test group were fed with MCD diet (Methionine-Choline Deficient Diet, Research Diets) for 9 weeks to induce NASH Model. During weeks 5-9 of the 9-week course of MCD diet, the control group and the test group were treated with GFT505 and TM4 of the invention, respectively, and the normal group and model group were treated with 0.5% MC. The dosage regimen was specified in table 5. [table] Animals were dissected after administration on day 35, livers were collected for H&E staining (hematoxylin-eosin staining) and sirius red staining. And then NAFLD activity score, including liver steatosis score, inflammation score and ballooning score, and liver fibrosis score were conducted.
# [7] = 1 mg/kg intragastric once every day for 35 days
# [8] = 1 mg/kg, 35 days, result in words
# Sequence of hERG potassium ion channel (Q12809 whole entry): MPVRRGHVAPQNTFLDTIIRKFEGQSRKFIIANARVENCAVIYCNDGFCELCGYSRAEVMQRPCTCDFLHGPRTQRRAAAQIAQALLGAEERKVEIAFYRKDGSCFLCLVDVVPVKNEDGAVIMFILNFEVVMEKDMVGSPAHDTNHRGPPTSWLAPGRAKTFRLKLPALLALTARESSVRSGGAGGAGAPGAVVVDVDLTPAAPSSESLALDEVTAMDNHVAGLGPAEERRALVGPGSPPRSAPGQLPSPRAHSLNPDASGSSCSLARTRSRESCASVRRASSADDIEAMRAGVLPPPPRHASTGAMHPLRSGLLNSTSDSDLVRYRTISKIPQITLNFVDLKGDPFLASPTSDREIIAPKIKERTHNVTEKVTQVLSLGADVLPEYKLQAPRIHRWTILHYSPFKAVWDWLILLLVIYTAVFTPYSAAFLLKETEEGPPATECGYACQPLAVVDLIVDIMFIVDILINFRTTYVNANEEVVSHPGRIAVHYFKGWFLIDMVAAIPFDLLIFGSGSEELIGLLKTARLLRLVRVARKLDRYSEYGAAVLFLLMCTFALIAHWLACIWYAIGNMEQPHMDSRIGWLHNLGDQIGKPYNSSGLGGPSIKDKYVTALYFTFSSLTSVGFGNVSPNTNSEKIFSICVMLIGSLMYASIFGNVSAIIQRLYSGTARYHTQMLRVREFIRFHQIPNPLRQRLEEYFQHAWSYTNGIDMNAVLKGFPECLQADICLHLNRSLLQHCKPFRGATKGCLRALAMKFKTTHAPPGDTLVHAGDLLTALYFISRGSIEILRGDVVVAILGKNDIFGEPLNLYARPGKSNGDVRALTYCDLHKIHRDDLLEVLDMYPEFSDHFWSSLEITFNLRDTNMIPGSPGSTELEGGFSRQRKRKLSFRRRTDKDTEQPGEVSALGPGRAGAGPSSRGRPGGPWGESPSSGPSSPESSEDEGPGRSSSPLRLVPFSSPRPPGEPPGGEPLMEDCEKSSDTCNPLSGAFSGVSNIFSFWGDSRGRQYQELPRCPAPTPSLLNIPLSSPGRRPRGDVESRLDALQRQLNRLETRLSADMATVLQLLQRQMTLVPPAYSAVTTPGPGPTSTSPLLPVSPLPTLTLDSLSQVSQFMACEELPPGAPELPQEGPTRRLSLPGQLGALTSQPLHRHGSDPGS
# Sequence of PPARα (Q07869 whole entry, looked up, the tested form may be a part): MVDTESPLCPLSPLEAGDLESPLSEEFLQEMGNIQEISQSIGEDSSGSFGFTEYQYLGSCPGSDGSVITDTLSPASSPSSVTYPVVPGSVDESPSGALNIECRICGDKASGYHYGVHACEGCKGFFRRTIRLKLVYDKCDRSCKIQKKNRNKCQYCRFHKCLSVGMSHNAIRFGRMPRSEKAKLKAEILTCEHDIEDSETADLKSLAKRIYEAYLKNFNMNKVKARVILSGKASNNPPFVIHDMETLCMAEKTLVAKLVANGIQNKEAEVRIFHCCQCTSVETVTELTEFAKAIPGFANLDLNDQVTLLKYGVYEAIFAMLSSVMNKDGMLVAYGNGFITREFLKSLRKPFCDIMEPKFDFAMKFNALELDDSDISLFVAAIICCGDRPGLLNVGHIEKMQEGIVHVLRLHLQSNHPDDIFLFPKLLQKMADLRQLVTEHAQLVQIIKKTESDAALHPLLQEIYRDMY
# Sequence of PPARδ (Q03181 whole entry, looked up, the tested form may be a part): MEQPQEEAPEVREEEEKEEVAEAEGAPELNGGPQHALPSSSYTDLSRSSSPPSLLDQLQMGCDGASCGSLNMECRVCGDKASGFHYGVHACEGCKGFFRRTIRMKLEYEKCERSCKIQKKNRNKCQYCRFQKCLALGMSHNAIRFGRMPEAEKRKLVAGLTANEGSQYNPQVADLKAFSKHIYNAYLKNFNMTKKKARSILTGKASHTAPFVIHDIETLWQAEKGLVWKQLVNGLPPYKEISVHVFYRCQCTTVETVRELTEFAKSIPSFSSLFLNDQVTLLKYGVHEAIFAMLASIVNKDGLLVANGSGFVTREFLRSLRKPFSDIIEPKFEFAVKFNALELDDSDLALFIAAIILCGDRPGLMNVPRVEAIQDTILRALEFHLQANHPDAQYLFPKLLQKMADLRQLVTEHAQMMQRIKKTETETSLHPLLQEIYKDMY
EC50 [1],SMILES,IC50 [2],EC50 [3],CC50 at 3 days [4],CC50 at 3 days [5],other results
,"Cc1cc(/C=C/C(=O)c2cc3ccccc3nc2N(C)C)cc(C)c1OC(C)(C)C(=O)O [Example 9, (E)-2-(4-(3-(2-dimethylaminoquinolin-3-yl)-3-oxo-1-propen-1-yl)-2,6-dimethylphenoxy)-2-methylpropionic acid]",> 10000 nM,,,,
460 nM,"COc1ccc2nc(Cl)c(C(=O)/C=C/c3cc(C)c(OC(C)(C)C(=O)O)c(C)c3)cc2c1 [Example 20, (E)-2-(4-(3-(2-chloro-6-methoxy-quinolin-3-yl)-3-oxo-1-propen-1-yl)-2,6-dimethylphenoxy)-2-methylpropionic acid]",,,,,
5.4 nM,"COc1ccc2nc(OC)c(C(=O)/C=C/c3cc(C)c(OC(C)(C)C(=O)O)c(C)c3)cc2c1 [Example 21, (E)-2-(4-(3-(2,6-dimethoxy-quinolin-3-yl)-3-oxo-1-propen-1-yl)-2,6-dimethylphenoxy)-2-methylpropionic acid]",> 10000 nM,675 nM,,,
8.62 nM,"COc1ccc2cc(C(=O)/C=C/c3cc(C)c(OC(C)(C)C(=O)O)c(C)c3)c(Cl)nc2c1 [Example 18, (E)-2-(4-(3-(2-chloro-7-methoxy-quinolin-3-yl)-3-oxo-1-propen-1-yl)-2,6-dimethylphenoxy)-2-methylpropionic acid]",> 10000 nM,810 nM,,,
,"CSc1ccc(C(=O)/C=C/c2cc(C)c(OC(C)(C)C(=O)O)c(C)c2)cc1 [GFT505, reference compound]",,,,,"Liver fibrosis score (Mean ± SD) [6, 7]: 1.22 ± 0.44; NAFLD activity score (Mean ± SD) [6, 7]: 3.33 ± 0.87; Reduction of NAFLD activity score compared with model group [6, 8]: not statistically significant; Reduction of liver fibrosis score compared with model group [6, 8]: not statistically significant"
1210 nM,"Cc1cc(/C=C/C(=O)c2cc3ccccc3s2)cc(C)c1OC(C)(C)C(=O)O [Example 2, (E)-2-(4-(3-(benzo [b]thien-2-yl)-3-oxo-1-propen-1-yl)-2,6-dimethylphenoxy)-2-methylpropionic acid]",8240 nM,6130 nM,~7270 nM,~8140 nM,
1.33 nM,"COc1ccc2cc(C(=O)/C=C/c3cc(C)c(OC(C)(C)C(=O)O)c(C)c3)c(OC)nc2c1 [Example 19, (E)-2-(4-(3-(2,7-dimethoxy-quinolin-3-yl)-3-oxo-1-propen-1-yl)-2,6-dimethylphenoxy)-2-methylpropionic acid]",> 10000 nM,796 nM,,,
692 nM,"Cc1cc(/C=C/C(=O)c2cc3ccccc3nc2C(F)(F)F)cc(C)c1OC(C)(C)C(=O)O [Example 8, (E)-2-(4-(3-(2-trifluoromethylquinolin-3-yl)-3-oxo-1-propen-1-yl)-2,6-dimethylphenoxy)-2-methylpropionic acid]",> 10000 nM,,> 10000 nM,> 10000 nM,
1930 nM,"Cc1cc(/C=C/C(=O)c2cnc3ccccc3c2)cc(C)c1OC(C)(C)C(=O)O [Example 3, (E)-2-(4-(3-(quinolin-3-yl)-3-oxo-1-propen-1-yl)-2,6-dimethylphenoxy)-2-methylpropionic acid]",> 10000 nM,,,,

SMILES,EC50 [1],IC50 [2],EC50 [3],CC50 at 3 days [4],CC50 at 3 days [5],other results
"CSc1nc2ccccc2cc1C(=O)/C=C/c1cc(C)c(OC(C)(C)C(=O)O)c(C)c1 [Example 17, (E)-2-(4-(3-(2-methylthioquinolin-3-yl)-3-oxo-1-propen-1-yl)-2,6-dimethylphenoxy)-2-methylpropionic acid]",123 nM,> 10000 nM,,,,
"Cc1cc(/C=C/C(=O)c2cc3ccccc3nc2N2CCCC2)cc(C)c1OC(C)(C)C(=O)O [Example 10, (E)-2-(4-(3-(2-(1-pyrrolidinyl)quinolin-3-yl)-3-oxo-1-propen-1-yl)-2,6-dimethylphenoxy)-2-methylpropionic acid]",77 nM,> 10000 nM,2510 nM,,,
"Cc1cc(/C=C/C(=O)c2cc3ccccc3nc2Cl)cc(C)c1OC(C)(C)C(=O)O [Example 4, (E)-2-(4-(3-(2-chloroquinolin-3-yl)-3-oxo-1-propen-1-yl)-2,6-dimethylphenoxy)-2-methyl propionic acid]",278 nM,> 10000 nM,3440 nM,11300 nM,13600 nM,
"COCCOc1nc2ccccc2cc1C(=O)/C=C/c1cc(C)c(OC(C)(C)C(=O)O)c(C)c1 [Example 6, (E)-2-(4-(3-(2-(2-methoxyethoxy)quinolin-3-yl)-3-oxo-1-propen-1-yl)-2,6-dimethylphenoxy)-2-methylpropionic acid]",52.8 nM,> 10000 nM,374 nM,> 10000 nM,> 10000 nM,
"Cc1cc(/C=C/C(=O)c2cc3ccccc3nc2N2CCOCC2)cc(C)c1OC(C)(C)C(=O)O [Example 11, (E)-2-(4-(3-(2-(morpholin-4-yl)quinolin-3-yl)-3-oxo-1-propen-1-yl)-2,6-dimethylphenoxy)-2-methylpropionic acid]",585 nM,,4430 nM,,,
"Cc1cc(/C=C/C(=O)c2cc3ccccc3nc2C)cc(C)c1OC(C)(C)C(=O)O [Example 7, (E)-2-(4-(3-(2-methylquinolin-3-yl)-3-oxo-1-propen-1-yl)-2,6-dimethylphenoxy)-2-methylpropionic acid]",752 nM,,,> 10000 nM,> 10000 nM,
